Laboratory results taken from patent US10258625B2, “Method for treatment of metastatic and refractory cancers and tumors with an inducer that overcomes inhibition of T cell proliferation” (The Wistar Institute of Anatomy and Biology, priority 2015, dated 2019).
Where two headings read alike, the source gives them in different places.

Key:
[1] = system: human T cells; assay: ConA-induced activation and expansion of human T cells (high-throughput screen); assay type: cell-based; settings: for EC50: T-cell, 168 h, read-out: EC50-T cells
[2] = system: A2780 ovarian cancer cells; assay: Molecular screening of compounds on A2780 cell proliferation (resazurin fluorescence); assay type: cell-based, human; settings: for EC50: Homo sapiens, A2780 cells cultured 3 days (72 hrs), from normalized percent inhibition, N/A = ambiguous curve fits or EC50 greater than highest concentration tested (25 μM)
Experimental: Plots show the normalized percent inhibition (NPI) vs. concentration in log (μM).
(§1) Cell proliferation assays—Cells were plated in 96-well plates. Compounds were added the next morning, and cell proliferation was measured 48 hrs later with the […] 96 MTS assay (Promega) according to the manufacturer's instructions. Molecular screening of compounds on A2780 cells was performed by adding compounds the morning after plating in 384-well plates and measuring proliferation 72 hrs later with resazurin fluorescence. Normalized percent inhibition (NPI) was calculated with respect to fluorescence values obtained with DMSO negative control and doxorubicin (5 μM) positive control as NPI=100%*(DMSO−compound)/(DMSO−doxorubicin).
EC50 values were calculated from normalized percent inhibition data using non-linear curve fitting in PRISM software.

[3] = system: MCF-7 tumor cells; assay: MCF-7 cell proliferation, MTS assay; assay type: cell-based, human; settings: 2 days, compared with T cell division indices
Experimental: Representative results from one of two independent experiments.
as §1

[4] = system: T cells; assay: Cytokine rescue of T cell proliferation from MEK inhibition; assay type: cell-based, human; settings: IL-2 20 U/ml, IL-7 2 ng/ml, IL-15 10 ng/ml, IL-21 100 ng/ml, IL-27 50 ng/ml, ALT-803 35.7 ng/ml
Source text: Proliferation of CD8 T cells after 7 days is shown.
Proliferation of CD8 T cells is shown.
Reported are percentages of cells that proliferated with GDC0973 relative to vehicle treatment with the same cytokines after 7 days. Stains are not depicted.
T cell stimulation—For human T cell proliferation assays, peripheral blood lymphocytes were obtained by leukapheresis/elutriation and Miltenyi bead-purified and K562 cells expressing human CD32 were generated as previously described^41. K32 were γ-irradiated (100 Gy) and loaded with anti-CD3 (500 ng/ml, clone OKT3; eBioscience) plus anti-CD28 (500 ng/ml, clone 15E8; EMD Millipore) antibodies at room temperature for 10 minutes. PBMCs were labeled with CELLTRACE Violet stain (Invitrogen) according to the manufacturer's instructions and cocultured with loaded K32 cells at a 10:1 T cell to K32 ratio or activated with ConA (2 μg/ml, Sigma). Proliferation of stimulated T cells was determined 7 days later by FACS and Division Index was calculated using FlowJo™ software.

[5] = human T cells activated with ConA for 7 days, from normalized percent inhibition, N/A = ambiguous curve fits or EC50 greater than highest concentration tested (25 μM)

## CN(C)CC[C@H](CSc1ccccc1)Nc1ccc(S(=O)(=O)NC(=O)c2ccc(N3CCN(Cc4ccccc4-c4ccc(Cl)cc4)CC3)cc2)cc1[N+](=O)[O-] [ABT737]
[1]; [5]
  EC50: 61 nM

## Cn1c(=O)n(-c2ccc(C(C)(C)C#N)cc2)c2c3cc(-c4cnc5ccccc5c4)ccc3ncc21 [BEZ235]
[1]; [5]
  EC50: 2.4 nM
[2]
  EC50: 21 nM

## Cc1[nH]c2ccccc2c1CCNCc1ccc(/C=C/C(=O)NO)cc1 [LBH589]
[1]; [5]
  EC50: 25 nM

## C[C@]1(O)C[C@@H](c2nc(-c3ccc4ccc(-c5ccccc5)nc4c3)c3c(N)nccn32)C1 [OSI906]
[3]
  MCF-7 tumor cell proliferation: reduction in tumor cell proliferation at concentrations that did not affect T cells
[1]; ConA-driven in vitro proliferation of human T cells
  activity on T cells (in words): did not show any activity
[2]
  activity on A2780 cells (in words): did not show any activity

## CC(=O)c1c(C)c2cnc(Nc3ccc(N4CCNCC4)cn3)nc2n(C2CCCC2)c1=O [PD0332991]
[1]; [5]
  EC50: 110 nM

## N#CC(=C(/N)Sc1ccccc1N)/C(C#N)=C(\N)Sc1ccccc1N [U0126]
[1]; Homo sapiens
  EC50: 1920 nM
[2]
  EC50: 12600 nM

## IL-15: Recombinant human IL-15 (Novoprotein); proliferative cytokine
[4]
  rescue of T cell proliferation in the presence of the MEK inhibitors: able to rescue

## IL-21: cytokine of the panel of T cell survival and/or proliferation cytokines
[4]
  rescue of T cell proliferation in the presence of the MEK inhibitors: no effect

B1: IL-7: recombinant mouse IL-7 (Peprotech) (protein, UniProt P10168 26-154, looked up)
Interleukin-7: ECHIKDKEGKAYESVLMISIDELDKMTGTDSNCPNNEPNFFRKHVCDDTKEAAFLNRAARKLKQFLKMNISEEFNVHLLTVSQGTQTLVNCTSKEEKNVKEQKKNDACFLKRLLREIKTCWNKILKGSI
[4]
  rescue of T cell proliferation in the presence of the MEK inhibitors: able to rescue

B2: IL-27: cytokine of the panel of T cell survival and/or proliferation cytokines (protein, UniProt Q8NEV9 29-243; Q14213 21-229, looked up)
Interleukin-27 subunit alpha: FPRPPGRPQLSLQELRREFTVSLHLARKLLSEVRGQAHRFAESHLPGVNLYLLPLGEQLPDVSLTFQAWRRLSDPERLCFISTTLQPFHALLGGLGTQGRWTNMERMQLWAMRLDLRDLQRHLRFQVLAAGFNLPEEEEEEEEEEEEERKGLLPGALGSALQGPAQVSWPQLLSTYRLLHSLELVLSRAVRELLLLSKAGHSVWPLGFPTLSPQP
Interleukin-27 subunit beta: RKGPPAALTLPRVQCRASRYPIAVDCSWTLPPAPNSTSPVSFIATYRLGMAARGHSWPCLQQTPTSTSCTITDVQLFSMAPYVLNVTAVHPWGSSSSFVPFITEHIIKPDPPEGVRLSPLAERQLQVQWEPPGSWPFPEIFSLKYWIRYKRQGAARFHRVGPIEATSFILRAVRPRARYYVQVAAQDLTDYGELSDWSLPATATMSLGK
[4]
  rescue of T cell proliferation in the presence of the MEK inhibitors: no effect
